Test results as given in patent US20260224758A1, “ALPHA-SYNUCLEIN BINDERS AND METHODS OF USE” (Merck Sharp & Dohme LLC, priority 2023, published 2026).
Like-named read-outs stand apart in the source and are kept apart here.

How the values were obtained:
[1] = target: T1, triton-extracted alpha-synuclein from PD Tissue (Homo sapiens, UniProt P37840); experiment: Alpha-synuclein tissue homogenate binding assay (Assay 1), displacement of [^3H]-1000; conditions: for Selectivity ratio (Assay 2/Assay 1): Aβ Tissue Ki / α-synuclein Tissue Ki; for Ki: read-out: α-synuclein Tissue Ki (Assay 1)
T1 construct: tissue Analytic Biological Services Inc; host or cells: human PD temporal cortex grey matter, Triton X-100 insoluble pellet
Experimental: Frozen human brain tissues from PD patients were purchased from Analytic Biological Services Inc. The samples were post-mortem tissues from donors with clinical diagnosis of late stage of PD. Alpha-synuclein, tau and amyloid burden was determined through a combination of immunohistochemistry on frozen thin coronal sections, as well as alpha Lisa-based quantification of protein levels in a detergent insoluble protein fraction. A tissue sample of temporal cortex was identified from one donor as having moderate to high alpha-synuclein burden, low amyloid and minimal to no tau pathology. The detergent insoluble fraction of temporal cortex from this patient was used to support homogenate binding studies. Grey matter was dissected out of the temporal cortex tissue with a dissecting blade and minced with fine dissecting scissors. […] Homogenates were centrifuged at 100,000×g for 45 minutes. The pellet was resuspended in TBS-TX buffer, using a Polytron at highest setting for 30 seconds at 4° C. Homogenates were centrifuged at 100,000×g for 45 minutes and the pellet was resuspended in TBS-TX buffer. A BCA protein assay was performed on the final homogenate to determine the protein concentration. […] For displacement a-synuclein binding assay, compounds and control were solvated in dimethyl sulfoxide (DMSO) and transferred using focused acoustic energy by an Echo 655 liquid handling instrument (Beckman Coulter, Indianapolis, IN) into designated wells of uniquely bar coded 96-well v-bottom low binding polypropylene microplates (Thermo Scientific, 249946). Compound dose response curves were prepared in a 10-point, 3-fold fashion within columns 2-11 of the microplate from high to low compound concentrations. […] Liquid-handling steps for dispensing insoluble fractions of PD brain homogenates and radioligand were performed using a Bravo automated liquid handling platform equipped with a 96LT disposable tip head (Agilent Technologies, Santa Clara. CA). […] The incubation was terminated by rapid filtration through UniFilter-96 GF/C microplates (pre-treated for 30 minutes with 0.2% Polyethylenimine at 4° C.) by using a FilterMate Harvester (PerkinElmer). […] The bottom of each UniFilter-96 GF/C microplate was adhesively sealed (PerkinElmer 6005199) prior to the addition of 50 μL MicroScint-20 liquid scintillation cocktail (PerkinElmer 6013621) to each well. A clear adhesive seal (TopSeal-A PLUS, PerkinElmer 6050185) was then applied to the top of each microplate and counted 1 minute/well on MicroBeta^2 system (PerkinElmer.

[2] = target: aggregated beta amyloid in AD tissue (Homo sapiens, UniProt P05067); experiment: Competitive radioligand binding to pathological aggregated beta amyloid in AD tissue (Assay 2), displacement of [^3H]-105; conditions: Aβ-rich AD frontal cortex homogenate, [^3H]-105, Kd 11.0 nM
[3] = insoluble fraction of PD brain homogenate, [^3H]-1000 3.0 nM, Kd 0.90 nM

Chain of aggregated beta amyloid in AD tissue (P05067 672-711 limits assumed): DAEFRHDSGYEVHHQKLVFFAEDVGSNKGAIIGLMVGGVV

| Compound | Selectivity ratio (Assay 2/Assay 1) [1] | Ki [1, 3] | Ki [2] | Ki [1] | Kd ([1]; radioligand [^3H]-1000, PD brain insoluble fraction) |
| --- | --- | --- | --- | --- | --- |
| COC[C@H]1CN(c2ncc(/C=C/c3ccc(-n4ccnc4)nc3)cn2)CCN1c1ncccn1 [Example 2, (R,E)-5-(2-(6-(1H-imidazol-1-yl)pyridin-3-yl)vinyl)-2-(3-(methoxymethyl)-4-(pyrimidin-2-yl)piperazin-1-yl)pyrimidine] | 13333 | 0.9 nM | ≥ 12000 nM | – | – |
| COC[C@H]1CN(c2ccccn2)CCN1c1ncc(/C=C/c2ccc(-n3cnnc3)nc2)cn1 [Example 5, (R,E)-5-(2-(6-(4H-1,2,4-triazol-4-yl)pyridin-3-yl)vinyl)-2-(2-(methoxymethyl)-4-(pyridin-2-yl)piperazin-1-yl)pyrimidine] | 7500 | 1.6 nM | ≥ 12000 nM | – | – |
| COCCOC[C@H]1CN(c2ccccn2)CCN1c1ncc(/C=C/c2ccc(-n3ccnc3)nc2)cn1 [Example 6, (R,E)-5-(2-(6-(1H-imidazol-1-yl)pyridin-3-yl)vinyl)-2-(2-((2-methoxyethoxy)methyl)-4-(pyridin-2-yl)piperazin-1-yl)pyrimidine] | 100 | 1.8 nM | 180 nM | – | – |
| COC[C@H]1CN(c2ncc(/C=C/c3ccc(-n4ccnc4)nc3)cn2)CCN1c1ncc(CO)cn1 [Example 7, (R,E)-(2-(4-(5-(2-(6-(1H-imidazol-1-yl)pyridin-3-yl)vinyl)pyrimidin-2-yl)-2-(methoxymethyl)piperazin-1-yl)pyrimidin-5-yl)methanol] | 436 | – | 480 nM | 1.1 nM | – |
| COC[C@H]1CN(c2ncc(/C=C/c3ccc(-n4ccnc4)nc3)cn2)CCN1c1ncc(CF)cn1 [Example 8, (R,E)-5-(2-(6-(1H-imidazol-1-yl)pyridin-3-yl)vinyl)-2-(4-(5-(fluoromethyl)pyrimidin-2-yl)-3-(methoxymethyl)piperazin-1-yl)pyrimidine] | 10909 | 1.1 nM | ≥ 12000 nM | – | – |
| COCc1cnc(N2CCN(c3ncc(/C=C/c4ccc(-n5ccnc5)nc4)cn3)[C@@H](COC)C2)nc1 [Example 9, (R,E)-5-(2-(6-(1H-imidazol-1-yl)pyridin-3-yl)vinyl)-2-(2-(methoxymethyl)-4-(5-(methoxymethyl)pyrimidin-2-yl)piperazin-1-yl)pyrimidine] | 15000 | 0.8 nM | ≥ 12000 nM | – | – |
| OC[C@H]1CN(c2ncc(C#Cc3ccc(-n4ccnc4)nc3)cn2)CCN1c1ncccn1 [Example 10, (R)-(4-(5-((6-(1H-imidazol-1-yl)pyridin-3-yl)ethynyl)pyrimidin-2-yl)-1-(pyrimidin-2-yl)piperazin-2-yl)methanol] | 2449 | – | ≥ 12000 nM | 4.9 nM | – |
| COC[C@H]1CN(c2ncc(C#Cc3ccc(-n4ccnc4)nc3)cn2)CCN1c1ncccn1 [Example 11, (R)-5-((6-(1H-imidazol-1-yl)pyridin-3-yl)ethynyl)-2-(3-(methoxymethyl)-4-(pyrimidin-2-yl)piperazin-1-yl)pyrimidine] | 10909 | 1.1 nM | ≥ 12000 nM | – | – |
| COC[C@H]1CN(c2ncc(C#Cc3cnc(-c4cnn(CCF)c4)nc3)cn2)CCN1c1ncc(F)cn1 [Example 88, (R)-5-fluoro-2-(4-(5-((2-(1-(2-fluoroethyl)-1H-pyrazol-4-yl)pyrimidin-5-yl)ethynyl)pyrimidin-2-yl)-2-(methoxymethyl)piperazin-1-yl)pyrimidine] | – | 0.99 nM | – | – | – |
| COC[C@H]1CN(c2ncc(C#Cc3cnc(-n4cnnc4)nc3)cn2)CCN1c1ccc(F)cn1 [Example 89, (R)-5-((2-(4H-1,2,4-triazol-4-yl)pyrimidin-5-yl)ethynyl)-2-(4-(5-fluoropyridin-2-yl)-3-(methoxymethyl)piperazin-1-yl)pyrimidine] | – | 2.59 nM | – | – | – |
| COC[C@H]1CN(c2ncc(C#Cc3ccc(-c4cnn(CCF)c4)nc3)cn2)CCN1c1ncc(F)cn1 [Example 90, (R)-5-fluoro-2-(4-(5-((6-(1-(2-fluoroethyl)-1H-pyrazol-4-yl)pyridin-3-yl)ethynyl)pyrimidin-2-yl)-2-(methoxymethyl)piperazin-1-yl)pyrimidine] | – | 1.82 nM | – | – | – |
| COC[C@H]1CN(c2ncc(C#Cc3cnc(-c4cnn(CCCF)c4)nc3)cn2)CCN1c1ncncn1 [Example 91, (R)-2-(4-(5-((2-(1-(3-fluoropropyl)-1H-pyrazol-4-yl)pyrimidin-5-yl)ethynyl)pyrimidin-2-yl)-2-(methoxymethyl)piperazin-1-yl)-1,3,5-triazine] | – | 2.44 nM | – | – | – |
| COC[C@H]1CN(c2ncc(C#Cc3ccc(-c4cnn(C)c4)nc3)cn2)CCN1c1ncc(OCCF)cn1 [Example 92, (R)-5-(2-fluoroethoxy)-2-(2-(methoxymethyl)-4-(5-((6-(1-methyl-1H-pyrazol-4-yl)pyridin-3-yl)ethynyl)pyrimidin-2-yl)piperazin-1-yl)pyrimidine] | – | 0.83 nM | – | – | – |
| FCCOC[C@H]1CN(c2ncc(C#Cc3cnc(-c4cnco4)nc3)cn2)CCN1c1ncccn1 [Example 93, (R)-5-(5-((2-(3-((2-fluoroethoxy)methyl)-4-(pyrimidin-2-yl)piperazin-1-yl)pyrimidin-5-yl)ethynyl)pyrimidin-2-yl)oxazole] | – | 3.06 nM | – | – | – |
| COC[C@H]1CN(c2ncc(C#Cc3cnc(-c4cnn(C)c4)nc3)cn2)CCN1c1cc(F)ncn1 [Example 94, (R)-2-(4-(6-fluoropyrimidin-4-yl)-3-(methoxymethyl)piperazin-1-yl)-5-((2-(1-methyl-1H-pyrazol-4-yl)pyrimidin-5-yl)ethynyl)pyrimidine] | – | 0.76 nM | – | – | – |
| Cn1cc(-c2ncc(C#Cc3cnc(N4CCN(c5ncncn5)[C@@H](COCF)C4)nc3)cn2)cn1 [Example 95, (R)-2-(2-((fluoromethoxy)methyl)-4-(5-((2-(1-methyl-1H-pyrazol-4-yl)pyrimidin-5-yl)ethynyl)pyrimidin-2-yl)piperazin-1-yl)-1,3,5-triazine] | – | – | – | 1.3 nM | – |
| Cn1cc(-c2ncc(C#Cc3cnc(N4CCN(c5ncncn5)C[C@H]4COCCF)nc3)cn2)cn1 [Example 96, (S)-2-(3-((2-fluoroethoxy)methyl)-4-(5-((2-(1-methyl-1H-pyrazol-4-yl)pyrimidin-5-yl)ethynyl)pyrimidin-2-yl)piperazin-1-yl)-1,3,5-triazine] | – | 5.51 nM | – | – | – |
| Cn1ccc(-c2ncc(C#Cc3cnc(N4CCN(c5ncc(F)cn5)[C@@H](COCCF)C4)nc3)cn2)n1 [Example 97, (R)-5-fluoro-2-(2-((2-fluoroethoxy)methyl)-4-(5-((2-(1-methyl-1H-pyrazol-3-yl)pyrimidin-5-yl)ethynyl)pyrimidin-2-yl)piperazin-1-yl)pyrimidine] | – | – | – | 4.31 nM | – |
| Cn1nccc1-c1ncc(C#Cc2cnc(N3CCN(c4ncncn4)[C@@H](COCCF)C3)nc2)cn1 [Example 98, (R)-2-(2-((2-fluoroethoxy)methyl)-4-(5-((2-(1-methyl-1H-pyrazol-5-yl)pyrimidin-5-yl)ethynyl)pyrimidin-2-yl)piperazin-1-yl)-1,3,5-triazine] | – | 1.96 nM | – | – | – |
| [^3H]-(S)-6-(1H-imidazol-1-yl)-N-(2-(2-methyl-4-(pyridin-2-yl)piperazin-1-yl)pyrimidin-5-yl)nicotinamide [[^3H]-1000, reference compound] | – | – | – | – | 0.9 nM |
